Measurements as given in paper PMC10303200 (ACS Central Science, 2023).

Molecular target: T1, PHA-E (Phaseolus vulgaris erythroagglutinin) (Phaseolus vulgaris, UniProt P05088)
T1 construct: purchased Vector Laboratories (Newark, CA, USA)
Format: binding
Conditions: read-out: Kd (Native); pH 6.9

T1 sequence (P05088 22-275 limits assumed): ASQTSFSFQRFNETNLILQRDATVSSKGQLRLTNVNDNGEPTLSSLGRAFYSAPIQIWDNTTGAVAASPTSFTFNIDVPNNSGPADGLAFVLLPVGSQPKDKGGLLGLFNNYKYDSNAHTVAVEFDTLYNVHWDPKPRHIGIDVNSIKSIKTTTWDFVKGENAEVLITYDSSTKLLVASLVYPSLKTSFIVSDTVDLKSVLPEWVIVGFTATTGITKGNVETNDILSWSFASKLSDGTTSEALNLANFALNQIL

SMILES	Kd [µM]
CC(=O)N[C@H]1[C@H](O[C@H]2[C@H](O)[C@@H](NC(C)=O)C(O)O[C@@H]2CO[C@@H]2O[C@@H](C)[C@@H](O)[C@@H](O)[C@@H]2O)O[C@H](CO)[C@@H](O[C@@H]2O[C@H](CO[C@H]3O[C@H](CO)[C@@H](O)[C@H](O)[C@@H]3O[C@@H]3O[C@H](CO)[C@@H](O)[C@H](O)[C@H]3NC(C)=O)[C@@H](O)[C@H](O[C@H]3O[C@H](CO)[C@@H](O)[C@H](O)[C@@H]3O[C@@H]3O[C@H](CO)[C@@H](O)[C@H](O)[C@H]3NC(C)=O)[C@@H]2O)[C@@H]1O (stereo partly drawn) [HexNAc4Hex3Fuc1]	18.6 ± 3.5
CC(=O)N[C@H]1[C@H](O[C@H]2[C@H](O)[C@@H](NC(C)=O)C(O)O[C@@H]2CO[C@@H]2O[C@@H](C)[C@@H](O)[C@@H](O)[C@@H]2O)O[C@H](CO)[C@@H](O[C@@H]2O[C@H](CO[C@H]3O[C@H](CO)[C@@H](O)[C@H](O)[C@@H]3O[C@@H]3O[C@H](CO)[C@@H](O[C@@H]4O[C@H](CO)[C@H](O)[C@H](O)[C@H]4O)[C@H](O)[C@H]3NC(C)=O)[C@@H](O)[C@H](O[C@H]3O[C@H](CO)[C@@H](O)[C@H](O)[C@@H]3O[C@@H]3O[C@H](CO)[C@@H](O[C@@H]4O[C@H](CO)[C@H](O)[C@H](O)[C@H]4O)[C@H](O)[C@H]3NC(C)=O)[C@@H]2O)[C@@H]1O (stereo partly drawn) [HexNAc4Hex5Fuc1]	12.3 ± 3.6
CC(=O)N[C@H]1[C@H](O[C@H]2[C@H](O)[C@@H](NC(C)=O)C(O)O[C@@H]2CO)O[C@H](CO)[C@@H](O[C@@H]2O[C@H](CO[C@H]3O[C@H](CO)[C@@H](O)[C@H](O)[C@@H]3O[C@@H]3O[C@H](CO)[C@@H](O[C@@H]4O[C@H](CO)[C@H](O)[C@H](O)[C@H]4O)[C@H](O)[C@H]3NC(C)=O)[C@@H](O)[C@H](O[C@H]3O[C@H](CO)[C@@H](O)[C@H](O)[C@@H]3O[C@@H]3O[C@H](CO)[C@@H](O[C@@H]4O[C@H](CO)[C@H](O)[C@H](O)[C@H]4O)[C@H](O)[C@H]3NC(C)=O)[C@@H]2O)[C@@H]1O (stereo partly drawn) [HexNAc4Hex5]	13.1 ± 0.8
